In patent US10272095B2 (GlaxoSmithKline Intellectual Property Development Limited, priority 2015, dated 2019):
Where a name gives a salt, the structure may show the parent alone.

tested on: NQO1 specific enzyme activity in BEAS-2B cells; test: BEAS-2B NQO1 MTT assay; assay type: cell-based; conditions: Homo sapiens, BEAS-2B, 48 h, NQO1 specific enzyme activity induction in BEAS-2B cells, 48 hours; read-out: EC50
Source text: NAD(P)H:quinone oxidoreductase 1 (NQO1), also called DT diaphorase, is a homodimeric FAD-containing enzyme that catalyzes obligatory NAD(P)H-dependent two-electron reductions of quinones and protects cells against the toxic and neoplastic effects of free radicals and reactive oxygen species arising from one-electron reductions. The transcription of NQO1 is finely regulated by NRF2, and thus NQO1 activity is a good marker for NRF2 activation. On day one, frozen BEAS-2B cells (ATCC) are thawed in a water bath, counted, and re-suspended at a concentration of 250,000 cells/mL. Fifty microliters of cells are plated in 384 well black clear-bottomed plates. Plates are incubated at 37° C., 5% CO2 overnight. On day two, plates are centrifuged and 50 nL of compound or controls are added to the cells. Plates are then incubated at 37° C., 5% CO2 for 48 hours. On day four, medium is aspirated from the plate and crude cell lysates are made by adding 13 uL of 1× Cell Signaling Technologies lysis buffer with 1 Complete, Mini, EDTA-free Protease Inhibitor Tablet (Roche) for each 10 mL of lysis buffer. After lysis plates are incubated for 20 minutes at room temperature. Two microliters of lysate are removed for use in Cell Titer Glo assay (Promega) and MTT cocktail is prepared (Prochaska et. al. 1998) for measurement of NQO1 activity. Fifty microliters of MTT cocktail is added to each well, plate is centrifuged, and analyzed on an Envision plate reader (Perkin Elmer) using Absorbance 570 nm label for 30 minutes. Product formation is measured kinetically and the pEC50 of NQO1 specific activity induction is calculated by plotting the change in absorbance (Delta OD/min) versus the log of compound concentration followed by 3-parameter fitting.
EC50s<1 nM (+++++), EC50s 10 nM-1 nM (++++), EC50s 10-100 nM (+++), EC50s 100 nM-1 uM (++), EC50s 1 uM-10 uM (+), EC50s>10 uM (−), or were not determined (ND).

Row | SMILES | EC50
1 | Cc1c([C@H](c2ccc3c(c2)[C@@H](N2Cc4ncccc4OC(C)(C)C2)CC3)C(C)(C)C(=O)O)ccc2c1nnn2C (racemic) [Example 68, rac-(R)-3-(1,4-Dimethyl-1H-benzo[d][1,2,3]triazol-5-yl)-3-(rac-(R)-3-(2,2-dimethyl-2,3-dihydropyrido[2,3-f][1,4]oxazepin-4(5H)-yl)-2,3-dihydro-1H-inden-5-yl)-2,2-dimethylpropanoic acid] | 10 to 100 nM
2 | Cc1c(C(c2ccc3c(c2)C(N2Cc4cccnc4O[C@@H](C)C2)CC3)C(C)(C)C(=O)O)ccc2c1nnn2C (stereo partly drawn) [Example 49, 3-(1,4-Dimethyl-1H-benzo[d][1,2,3]triazol-5-yl)-2,2-dimethyl-3-(3-((S)-2-methyl-2,3-dihydropyrido[3,2-f][1,4]oxazepin-4(5H)-yl)-2,3-dihydro-1H-inden-5-yl)propanoic Acid, Formic Acid Salt] | 10 to 100 nM
3 | Cc1c(C(CC(=O)O)c2ccc3c(c2)C2C(CCN2C(=O)Cc2ccccc2Cl)C3)ccc2c1nnn2C (stereo not drawn) [Example 11, 3-{1-[2-(2-Chlorophenyl)acetyl]-1H,2H,3H,3aH,4H,8bH-indeno[1,2-b]pyrrol-7-yl}-3-(1,4-dimethyl-1H-1,2,3-benzotriazol-5-yl)propanoic Acid] | 1000 to 10000 nM
4 | CC[C@@H]1CN(C2CCc3ccc(C(CCc4cn(CC)nn4)C(C)(C)C(=O)O)cc32)Cc2cnccc2O1 (stereo partly drawn) [Example 87, 5-(1-Ethyl-1H-1,2,3-triazol-4-yl)-3-(3-((R)-2-ethyl-2,3-dihydropyrido[3,4-f][1,4]oxazepin-4(5H)-yl)-2,3-dihydro-1H-inden-5-yl)-2,2-dimethylpentanoic Acid] | 10 to 100 nM
5 | Cc1c(C(CC(=O)O)c2ccc3c(c2)C2C(CCN2C(=O)Cc2ccccc2C#N)C3)ccc2c1nnn2C (stereo not drawn) [Example 12, 3-{1-[2-(2-Cyanophenyl)acetyl]-1H,2H,3H,3aH,4H,8bH-indeno[1,2-b]pyrrol-7-yl}-3-(1,4-dimethyl-1H-1,2,3-benzotriazol-5-yl)propanoic Acid] | 1000 to 10000 nM
6 | Cc1cc(F)ccc1C(c1ccc2c(c1)C(N1Cc3ccccc3OC(C)(C)C1)CC2)C(C)(C)C(=O)O (stereo not drawn) [Example 26, 3-(3-(2,2-Dimethyl-2,3-dihydrobenzo[f][1,4]oxazepin-4(5H)-yl)-2,3-dihydro-1H-inden-5-yl)-3-(4-fluoro-2-methylphenyl)-2,2-dimethylpropanoic Acid] | 10 to 100 nM
7 | Cc1c(C(CC(=O)O)c2ccc3c(c2)C(N2Cc4cc(Cl)ccc4OC(C)(C)C2)CC3)ccc2c1nnn2C (stereo not drawn) [Example 21, 3-(3-(7-Chloro-2,2-dimethyl-2,3-dihydrobenzo[f][1,4]oxazepin-4(5H)-yl)-2,3-dihydro-1H-inden-5-yl)-3-(1,4-dimethyl-1H-benzo[d][1,2,3]triazol-5-yl)propanoic Acid, Formic Acid Salt] | 1 to 10 nM
8 | Cc1ccc2c(c1)OC(C)(C)CN(C1CCc3ccc(C(CC(=O)O)c4ccc5c(nnn5C)c4C)cc31)C2 (stereo not drawn) [Example 24, 3-(1,4-Dimethyl-1H-benzo[d][1,2,3]triazol-5-yl)-3-(3-(2,2,8-trimethyl-2,3-dihydrobenzo[f][1,4]oxazepin-4(5H)-yl)-2,3-dihydro-1H-inden-5-yl)propanoic Acid, Formic Acid Salt] | 1 to 10 nM
9 | Cc1cc(F)ccc1C(CC(=O)O)c1ccc2c(c1)C(N1Cc3cccnc3OC(C)(C)C1)CC2 (stereo not drawn) [Example 60, 3-(3-(2,2-Dimethyl-2,3-dihydropyrido[3,2-f][1,4]oxazepin-4(5H)-yl)-2,3-dihydro-1H-inden-5-yl)-3-(4-fluoro-2-methylphenyl)propanoic Acid, Formic Acid Salt] | 100 to 1000 nM
10 | COc1cc(C(CC(=O)O)c2ccc3c(c2)C(N2CCOc4ccccc4C2)CC3)c(C)c2nnn(C)c12 (stereo not drawn) [Example 52, 3-(3-(2,3-Dihydrobenzo[f][1,4]oxazepin-4(5H)-yl)-2,3-dihydro-1H-inden-5-yl)-3-(7-methoxy-1,4-dimethyl-1H-benzo[d][1,2,3]triazol-5-yl)propanoic Acid, Formic Acid Salt] | 10 to 100 nM
11 | Cc1c(C(CC(=O)O)c2ccc3c(c2)C(N2CCOc4ccccc4C2)CC3)ccc2c1nnn2C (stereo not drawn) [Example 58, 3-(3-(2,3-Dihydrobenzo[f][1,4]oxazepin-4(5H)-yl)-2,3-dihydro-1H-inden-5-yl)-3-(1,4-dimethyl-1H-benzo[d][1,2,3]triazol-5-yl)propanoic Acid, Formic Acid Salt] | 100 to 1000 nM
12 | Cc1c([C@@H](c2ccc3c(c2)[C@H](N2Cc4ccccc4OC(C)(C)C2)CC3)C(C)(C)C(=O)O)ccc2c1nnn2C (stereo in doubt) [Example 79, rel-(R)-3-(1,4-Dimethyl-1H-benzo[d][1,2,3]triazol-5-yl)-3-(rel-(R)-3(2,2-dimethyl-2,3-dihydrobenzo[f][1,4]oxazepin-4(5H)-yl)-2,3-dihydro-1H-inden-5-yl)-2,2-dimethylpropanoic acid] | 1 to 10 nM
13 | CC[C@@H]1CN(C2CCc3ccc(C(c4ccc5c(nnn5C)c4C)C(C)(C)C(=O)O)cc32)Cc2cnccc2O1 (stereo partly drawn) [Example 37, 3-(1,4-Dimethyl-1H-benzo[d][1,2,3]triazol-5-yl)-3-(3-((R)-2-ethyl-2,3-dihydropyrido[3,4-f][1,4]oxazepin-4(5H)-yl)-2,3-dihydro-1H-inden-5-yl)-2,2-dimethylpropanoic Acid, Formic Acid Salt] | 1 to 10 nM
14 | CCn1nnc(CCC(c2ccc3c(c2)C(N2Cc4ccccc4OC(C)(C)C2)CC3)C(C)(C)C(=O)O)n1 (stereo not drawn) [Example 64, 3-(3-(2,2-dimethyl-2,3-dihydrobenzo[f][1,4]oxazepin-4(5H)-yl)-2,3-dihydro-1H-inden-5-yl)-5-(2-ethyl-2H-tetrazol-5-yl)-2,2-dimethylpentanoic Acid, Trifluoroacetic Acid Salt] | 10 to 100 nM
15 | Cc1c([C@H](c2ccc3c(c2)[C@H](N2Cc4ccccc4OC(C)(C)C2)CC3)C(C)(C)C(=O)O)ccc2c1nnn2C (stereo in doubt) [Example 77, rel-(S)-3-(1,4-Dimethyl-1H-benzo[d][1,2,3]triazol-5-yl)-3-(rel-(R)-3-(2,2-dimethyl-2,3-dihydrobenzo[f][1,4]oxazepin-4(5H)-yl)-2,3-dihydro-1H-inden-5-yl)-2,2-dimethylpropanoic Acid] | < 1 nM
16 | COc1cc(C(CC(=O)O)c2ccc3c(c2)C(N2Cc4cnccc4OC(C)(C)C2)CC3)cc2nnn(C)c12 (stereo not drawn) [Example 46, 3-(3-(2,2-Dimethyl-2,3-dihydropyrido[3,4-f][1,4]oxazepin-4(5H)-yl)-2,3-dihydro-1H-inden-5-yl)-3-(7-methoxy-1-methyl-1H-benzo[d][1,2,3]triazol-5-yl)propanoic Acid, Formic Acid Salt] | 10 to 100 nM
17 | Cc1c(C(CC(=O)O)c2ccc3c(c2)C2C(C3)OC(=O)N2CC2CCCCC2)ccc2c1nnn2C (stereo not drawn) [Example 20, 3-(3-(Cyclohexylmethyl)-2-oxo-3,3a,8,8a-tetrahydro-2H-indeno[1,2-d]oxazol-5-yl)-3-(1,4-dimethyl-1H-benzo[d][1,2,3]triazol-5-yl)propanoic Acid] | 100 to 1000 nM

same assay, conditions: NQO1 specific enzyme activity induction in BEAS-2B cells, 48 hours; read-out: EC50

Row | SMILES | EC50
18 | CC[C@@H]1CN([C@H]2CCc3ccc([C@@H](c4ccc5c(nnn5C)c4C)C(C)(C)C(=O)O)cc32)Cc2cnccc2O1 (relative stereo) [Example 85, rel-(S)-3-(1,4-Dimethyl-1H-benzo[d][1,2,3]triazol-5-yl)-3-(rel-(S)-3-((R)-2-ethyl-2,3-dihydropyrido[3,4-f][1,4]oxazepin-4(5H)-yl)-2,3-dihydro-1H-inden-5-yl)-2,2-dimethylpropanoic Acid] | 10 to 100 nM
